Patent publication US20060083691A1, “Intranasal opioid compositions, delivery devices and methods of using same” (priority 2000, published 2006)

Legend:
Assay type in all cases: in vivo, human
[1] = Pharmacokinetics of single or multiple doses of intranasal butorphanol tartrate, two-way crossover study
Method: Pharmacokinetic parameters of single doses or multi doses of intranasal butorphanol tartrate using a single-dose, metered sprayer were evaluated in a 12 subject, two-way crossover study. The butorphanol formulation used was as described in Example 2. Each volunteer received either 1 or 2 mg of intranasal butorphanol as a single does (Treatment A) and 1 or 2 mg of intranasal butorphanol every six hours for seven doses (Treatment B). The butorphaonol composition was substantially as described in Example 2. During phase 1, 12 subjects received a single 1 mg dose. During phase 2, those who received the 1 mg single dose received 1 mg every six hours for seven doses. During phase 3, those who received the 2 mg single dose received 2 mg every six hours for seven doses. Serial blood samples were collected over 12 hours. Pharmacokinetic parameters are show in Table 5.

[2] = Pharmacokinetics and bioequivalence of butorphanol formulation, unit-dose vs multi-dose delivery device; settings: 2 mg intranasal
Method: The experiments described in this example compared bioavailability and other parameters of a butorphanol formulation when administered using a unit-dose or multi-dose delivery device. The butorphanol formulation used for this example (STADOL NS®) contained 10 mg butorphanol tartrate, 6.5 mg sodium chloride, 1.0 mg citric acid, 0.20 mg benzethonium chloride in purified water with 1.2 mg sodium hydroxide and hydrochloric acid added to adjust the pH to 5.0.
The multi-dose sprayer purported by its label to administer 0.1 ml of liquid composition by metering upon activation by the user. The unit-dose spray device was a disposable intranasal applicator that is commercially available from Pfeiffer of America under the designation “Unitdose Second Generation.” Each of the Pfeiffer spray applicators was charged with sufficient liquid to deliver a 0.1 ml dose of the butorphanol formulation. The associated glass containers were filled using a pipette under clean conditions, sealed and assembled to the applicator. Each of the applicators was weighed prior to use and after use. Qualified medical personnel administered one dose into each nostril, after which the applicator was recovered for weighing. In the case of the unit-dose applicators, two devices were used for each patient for a total of 2 mg butorphanol tartrate.
Pharmacokinetics and bioequivalence (intrasubject variabilitiy) of the above-described butorphanol formulation upon administration using either the multi-dose or unit dose delivery device was assessed. The study was initiated with 16 subjects, 15 of which completed the study to provide data for this analysis; one subject dropped out after the second period. The following analysis considers both raw and normalized data, with the latter standardized with respect to the dose dispensed.
For both the raw and normalized data, log transformations are applied to the pharmacokinetic endpoints Cmax, AUC(last), and AUC(inf). A mixed effects model was considered for each parameter. Fixed effects for the factors sequence (4 levels), period 3 levels) and device (2 levels) were included in the model. Additionally, gender, as well as the interactions between gender and each of sequence, period and device was included as a factor in each model to determine whether separate analyses would be necessary for males and females. A total of seven models were considered: Tmax, log of raw Cmax values, log of normalized Cmax values, log transformed values for raw and normalized AUC(last), and log values for raw and normalized AUC(inf). […] In addition, the lack of significance of the effects included in each model indicate that there was no evidence of unequal carryover between the two delivery devices. […]

[3] = Pharmacokinetics of single doses of intranasal butorphanol tartrate, three-way crossover study; settings: for F(%): relative to 2 mg i.v.
Method: Pharmacokinetic parameters of single doses of intranasal butorphanol tartrate using a single-dose, metered sprayer were evaluated in a 24 subject, three-way crossover study. The intranasal formulation contained aqueous buffered solution (pH 5) having 0.2% sodium citrate and 0.2% citric acid and 1 mg of butorphanol tartrate per ml. […] Each volunteer received three treatments: (1) 2 mg of i.v. butorphanol, (2) 2 mg of intranasal butorphanol, and (3) 1 mg of intranasal butorphanol. Each treatment was separated by a 6 day washout period.

[4] = Multiple Dose 1 mg q 6 hr intranasal
[5] = Multiple Dose 2 mg q 6 hr intranasal

Structure (SMILES): O=C(O)C(O)C(O)C(=O)O.Oc1ccc2c(c1)[C@@]13CCCC[C@@]1(O)[C@@H](C2)N(CC1CCC1)CC3 [butorphanol tartrate]
- AUC0-t [1, 4]: 7.21 ng·h/mL
- Cmax [1, 4]: 1.55 ng/mL
- Tmax range [1, 4]: (0.25-3.0)
- AUC0-t [1, 5]: 15.75 ng·h/mL
- Cmax [1, 5]: 3.80 ng/mL
- Tmax range [1, 5]: (0.25-0.75)
- AUC0-t ([1]; Single Dose 1 mg intranasal): 3.80 ng·h/mL
- Cmax ([1]; Single Dose 1 mg intranasal): 1.46 ng/mL
- Tmax range ([1]; Single Dose 1 mg intranasal): (0.17-1.02)
- AUC0-t ([1]; Single Dose 2 mg intranasal): 9.55 ng·h/mL
- Cmax ([1]; Single Dose 2 mg intranasal): 4.13 ng/mL
- Tmax range ([1]; Single Dose 2 mg intranasal): (0.167-0.5)
- AUC0-t ([2]; STADOL NS multi-dose device): about 9329 pg*hr/ml
- Cmax ([2]; STADOL NS multi-dose device): about 4027 pg/ml
- Tmax ([2]; STADOL NS multi-dose device): about 0.245 hr
- AUC ([2]; unit-dose device): about 10661 pg*hr/ml
- AUC0-t ([3]; 1 mg intranasal): 4.88 ± 1.5 ng·h/mL
- Cmax ([3]; 1 mg intranasal): 1.67 ± 0.7 ng/mL
- F(%) ([3]; 1 mg intranasal): 80.2 ± 29.1%
- AUC0-t ([3]; 2 mg i.v.): 12.59 ± 2.3 ng·h/mL
- Cmax ([3]; 2 mg i.v.): 10.32 ± 2.7 ng/mL
- AUC0-t ([3]; 2 mg intranasal): 9.51 ± 1.9 ng·h/mL
- Cmax ([3]; 2 mg intranasal): 3.38 ± 1.3 ng/mL
- F(%) ([3]; 2 mg intranasal): 77.6 ± 18.3%
